Results as given in the NIST ThermoML archive (doi:10.1021/je0342825).

Experiment: xn = mol fraction of the nth substance listed
Conditions: 101.3 kPa, Liquid

CC(=O)O [acetic acid] + CO
Conditions | mass density, 293.15 K [kg/m3] | mass density, 298.15 K [kg/m3] | mass density, 303.15 K [kg/m3] | speed of sound, 293.15 K [m/s] | speed of sound, 298.15 K [m/s] | speed of sound, 303.15 K [m/s] | viscosity, 293.15 K [mPa·s] | viscosity, 298.15 K [mPa·s] | viscosity, 303.15 K [mPa·s]
x1 = 0.0498 | 811.92 | 807.17 | 802.41 | 1133 | 1116 | 1100 | 0.626 | 0.583 | 0.543
x1 = 0.1006 | 831.39 | 826.6 | 821.79 | 1143 | 1127 | 1111 | 0.676 | 0.628 | 0.585
x1 = 0.2016 | 867.61 | 862.71 | 857.79 | 1162 | 1146 | 1130 | 0.784 | 0.729 | 0.678
x1 = 0.2995 | 899.77 | 894.77 | 889.74 | 1178 | 1161 | 1145 | 0.899 | 0.825 | 0.765
x1 = 0.401 | 929.99 | 924.88 | 919.75 | 1189 | 1172 | 1156 | 1.038 | 0.954 | 0.879
x1 = 0.4992 | 956.37 | 951.16 | 945.92 | 1196 | 1179 | 1162 | 1.161 | 1.062 | 0.975
x1 = 0.5996 | 980.68 | 975.36 | 970.01 | 1198 | 1181 | 1164 | 1.274 | 1.162 | 1.062
x1 = 0.6998 | 1001.88 | 996.46 | 991.01 | 1195 | 1178 | 1161 | 1.352 | 1.229 | 1.124
x1 = 0.7969 | 1020.24 | 1014.72 | 1009.19 | 1187 | 1170 | 1153 | 1.38 | 1.26 | 1.151
x1 = 0.9 | – | 1031.06 | 1025.45 | – | 1156 | 1138 | – | 1.224 | 1.126
x1 = 0.9555 | 1043.82 | 1038.2 | 1032.56 | 1162 | 1145 | 1128 | 1.283 | 1.177 | 1.088
x1 = 1 | 1049.3 | 1043.65 | 1038 | 1149 | 1132 | 1115 | 1.211 | 1.115 | 1.034

CCO [ethanol] + CC(=O)O
x2 = 0
Conditions | mass density [kg/m3] | speed of sound [m/s] | viscosity [mPa·s]
293.15 K | 789.75 | 1162 | 1.187
298.15 K | 785.46 | 1145 | 1.082
303.15 K | 781.15 | 1128 | 0.987

CO [methanol] + CC(=O)O
x2 = 0
Conditions | mass density [kg/m3] | speed of sound [m/s] | viscosity [mPa·s]
293.15 K | 791.9 | 1121 | 0.585
298.15 K | 787.2 | 1104 | 0.545
303.15 K | 782.48 | 1088 | 0.508

COC(C)=O [methyl ethanoate] + CC(=O)O
Conditions | mass density, 293.15 K [kg/m3] | mass density, 298.15 K [kg/m3] | mass density, 303.15 K [kg/m3] | speed of sound, 293.15 K [m/s] | speed of sound, 298.15 K [m/s] | speed of sound, 303.15 K [m/s] | viscosity, 293.15 K [mPa·s] | viscosity, 298.15 K [mPa·s] | viscosity, 303.15 K [mPa·s]
x2 = 0 | 933.56 | 926.98 | 920.34 | 1174 | 1151 | 1128 | 0.386 | 0.367 | 0.348
x2 = 0.0496 | 938.74 | 932.23 | 925.65 | 1177 | 1154 | 1131 | 0.401 | 0.381 | 0.362
x2 = 0.0956 | 943.44 | 936.98 | 930.46 | 1177 | 1155 | 1133 | 0.417 | 0.395 | 0.376
x2 = 0.195 | 953.14 | 946.77 | 940.34 | 1177 | 1155 | 1133 | 0.46 | 0.436 | 0.412
x2 = 0.3007 | 963.86 | 957.58 | 951.24 | 1176 | 1154 | 1133 | 0.506 | 0.48 | 0.453
x2 = 0.3902 | 973.23 | 967.02 | 960.77 | 1174 | 1153 | 1132 | 0.552 | 0.521 | 0.492
x2 = 0.4937 | 984.52 | 978.4 | 972.24 | 1172 | 1151 | 1131 | 0.617 | 0.58 | 0.547
x2 = 0.5953 | 996.15 | 990.1 | 984.03 | 1169 | 1149 | 1129 | 0.691 | 0.646 | 0.608
x2 = 0.6894 | 1007.51 | 1001.55 | 995.56 | 1166 | 1147 | 1127 | 0.775 | 0.725 | 0.68
x2 = 0.7943 | 1020.92 | 1015.05 | 1009.16 | 1162 | 1143 | 1124 | 0.894 | 0.834 | 0.782
x2 = 0.8987 | 1034.93 | 1029.17 | 1023.39 | 1156 | 1138 | 1120 | 1.037 | 0.962 | 0.896
x2 = 0.9502 | 1042.19 | 1036.49 | 1030.77 | 1153 | 1136 | 1118 | 1.12 | 1.037 | 0.964
